Data as given in patent US20250177414A1, “COMBINATION THERAPIES FOR TREATMENT OF BREAST CANCER” (Genentech, Inc., priority 2023, published 2025).
“Also recorded” adds a separate entry of the source. Where two headings read alike, the source gives them in different places.

How the values were obtained:
patients with HR+ LA/mBC = conditions: published trials; cited from earlier work
ER = conditions: cited from earlier work
pregnant rats = assay: Embryo-fetal development study; type: in vivo, rat
CYP2C9 = CYP2C9 (Homo sapiens, UniProt P11712); assay: In vitro CYP450 study; type: in vitro ADME
MATE1 = MATE1 (Homo sapiens, UniProt Q96FL8); assay: In vitro transporter study; type: in vitro ADME
OAT3 = OAT3 (Homo sapiens, UniProt Q8TCC7); assay: In vitro transporter study; type: in vitro ADME
OATP1B3 = OATP1B3 (Homo sapiens, UniProt Q9NPD5); assay: In vitro transporter study; type: in vitro ADME
OATP1B1 = OATP1B1 (Homo sapiens, UniProt Q9Y6L6); assay: In vitro transporter study; type: in vitro ADME
CYP2C8 = CYP2C8 (Homo sapiens, UniProt P10632); assay: In vitro CYP450 study; type: in vitro ADME
[1] = test system: PIK3CA-mutated breast cancer cell lines; assay: In vitro activity in breast cancer cell lines
[2] = target: breast cancer resistance protein (BCRP) (Homo sapiens, UniProt Q9UNQ0); assay: In vitro transporter study; type: in vitro ADME
CYP1A2 = CYP1A2 (Homo sapiens, UniProt P05177); assay: In vitro CYP450 study; type: in vitro ADME
rat bone marrow = assay: In vivo rat bone marrow micronucleus test
CYP2B6 = CYP2B6 (Homo sapiens, UniProt P20813); assay: In vitro CYP450 study; type: in vitro ADME
MATE2K = MATE2K (Homo sapiens, UniProt Q86VL8); assay: In vitro transporter study; type: in vitro ADME
liver = conditions: in vivo
P-glycoprotein (P-gp) = P-glycoprotein (P-gp) (Homo sapiens, UniProt P08183); assay: In vitro transporter study; type: in vitro ADME
clinical = conditions: human, 9 mg/day
CYP2D6 = CYP2D6 (Homo sapiens, UniProt P10635); assay: In vitro CYP450 study; type: in vitro ADME
[3] = test system: PIK3CA-mutated, estrogen receptor-positive, breast cancer xenograft models; assay: Breast cancer xenograft models; type: in vivo; conditions: single agent
dogs = assay: Repeat-dose toxicity studies in dogs; type: in vivo, dog
OAT2 = OAT2 (Homo sapiens, UniProt Q9Y694); assay: In vitro transporter study; type: in vitro ADME
CYP3A = assay: In vitro CYP450 study; type: in vitro ADME
OCT1 = OCT1 (Homo sapiens, UniProt O15245); assay: In vitro transporter study; type: in vitro ADME
[4] = Clinical pharmacokinetics of inavolisib
OCT2 = OCT2 (Homo sapiens, UniProt O15244); assay: In vitro transporter study; type: in vitro ADME
human lymphocyte = assay: In vitro human lymphocyte micronucleus assay; type: cell-based
Text: (§1) Inavolisib was not mutagenic in the bacterial reverse mutation (Ames) assay. Inavolisib was clastogenic in an in vitro human lymphocyte micronucleus assay.

QTc interval = assay: Cardiac electrophysiology; type: in vivo, human; conditions: recommended approved dosage
Text: At the recommended approved dosage, a mean increase in the QTc interval of ≥20 ms is unlikely.

rats = assay: Repeat-dose toxicity studies in rats; type: in vivo, rat
[5] = Plasma protein binding in vitro; type: in vitro ADME
CYP2C19 = CYP2C19 (Homo sapiens, UniProt P33261); assay: In vitro CYP450 study; type: in vitro ADME
OAT1 = OAT1 (Homo sapiens, UniProt Q4U2R8); assay: In vitro transporter study; type: in vitro ADME
[6] = test system: bacterial reverse mutation; assay: Bacterial reverse mutation (Ames) assay; type: cell-based
Text: as §1

Aqueous solubility = type: physicochemical
Text: Inavolisib is a white to off-white, greyish pink, greyish orange, or greyish yellow powder or powder with lumps.

PI3Kα = PI3Kα (Homo sapiens, UniProt P42336); assay: PI3K inhibition; type: biochemical
[7] = test system: patients with HR+/HER2− breast cancer; conditions: in combination with letrozole; cited from earlier work
[8] = test system: patients with HR+/HER2− breast cancer; conditions: in combination with fulvestrant; cited from earlier work

Chain of MATE1 (Q96FL8 whole entry): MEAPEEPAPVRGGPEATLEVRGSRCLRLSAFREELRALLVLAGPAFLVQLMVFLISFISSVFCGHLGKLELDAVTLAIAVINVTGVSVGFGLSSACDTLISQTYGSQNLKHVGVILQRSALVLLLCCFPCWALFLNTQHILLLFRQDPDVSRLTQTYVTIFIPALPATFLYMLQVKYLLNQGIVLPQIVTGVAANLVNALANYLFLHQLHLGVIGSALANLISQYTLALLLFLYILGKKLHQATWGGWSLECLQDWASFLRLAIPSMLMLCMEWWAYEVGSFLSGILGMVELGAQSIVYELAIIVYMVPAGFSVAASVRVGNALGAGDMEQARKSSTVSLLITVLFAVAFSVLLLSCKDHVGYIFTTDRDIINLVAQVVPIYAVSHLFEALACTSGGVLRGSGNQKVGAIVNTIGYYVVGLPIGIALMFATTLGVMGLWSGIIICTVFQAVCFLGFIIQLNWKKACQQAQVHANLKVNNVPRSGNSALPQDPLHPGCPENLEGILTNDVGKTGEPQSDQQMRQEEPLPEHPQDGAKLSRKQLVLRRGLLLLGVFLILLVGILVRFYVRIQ
Chain of OATP1B3 (Q9NPD5 whole entry): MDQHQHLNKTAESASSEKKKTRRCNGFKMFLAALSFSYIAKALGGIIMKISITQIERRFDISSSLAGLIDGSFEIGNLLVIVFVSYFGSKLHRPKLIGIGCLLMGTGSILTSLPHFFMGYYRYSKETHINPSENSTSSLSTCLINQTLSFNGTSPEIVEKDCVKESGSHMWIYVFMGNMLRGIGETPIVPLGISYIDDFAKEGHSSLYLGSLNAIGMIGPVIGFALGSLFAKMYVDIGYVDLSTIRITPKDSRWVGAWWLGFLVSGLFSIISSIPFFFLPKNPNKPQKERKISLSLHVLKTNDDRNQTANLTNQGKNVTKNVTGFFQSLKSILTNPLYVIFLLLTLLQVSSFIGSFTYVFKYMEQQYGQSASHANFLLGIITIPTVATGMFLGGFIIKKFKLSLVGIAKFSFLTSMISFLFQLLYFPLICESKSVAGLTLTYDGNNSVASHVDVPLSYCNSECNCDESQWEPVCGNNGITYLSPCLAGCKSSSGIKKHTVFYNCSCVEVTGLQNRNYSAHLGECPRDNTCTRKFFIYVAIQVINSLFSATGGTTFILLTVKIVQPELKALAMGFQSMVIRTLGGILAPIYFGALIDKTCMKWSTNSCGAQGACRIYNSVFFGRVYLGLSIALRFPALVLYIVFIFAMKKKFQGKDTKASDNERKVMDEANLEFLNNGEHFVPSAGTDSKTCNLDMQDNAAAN
Chain of OATP1B1 (Q9Y6L6 whole entry): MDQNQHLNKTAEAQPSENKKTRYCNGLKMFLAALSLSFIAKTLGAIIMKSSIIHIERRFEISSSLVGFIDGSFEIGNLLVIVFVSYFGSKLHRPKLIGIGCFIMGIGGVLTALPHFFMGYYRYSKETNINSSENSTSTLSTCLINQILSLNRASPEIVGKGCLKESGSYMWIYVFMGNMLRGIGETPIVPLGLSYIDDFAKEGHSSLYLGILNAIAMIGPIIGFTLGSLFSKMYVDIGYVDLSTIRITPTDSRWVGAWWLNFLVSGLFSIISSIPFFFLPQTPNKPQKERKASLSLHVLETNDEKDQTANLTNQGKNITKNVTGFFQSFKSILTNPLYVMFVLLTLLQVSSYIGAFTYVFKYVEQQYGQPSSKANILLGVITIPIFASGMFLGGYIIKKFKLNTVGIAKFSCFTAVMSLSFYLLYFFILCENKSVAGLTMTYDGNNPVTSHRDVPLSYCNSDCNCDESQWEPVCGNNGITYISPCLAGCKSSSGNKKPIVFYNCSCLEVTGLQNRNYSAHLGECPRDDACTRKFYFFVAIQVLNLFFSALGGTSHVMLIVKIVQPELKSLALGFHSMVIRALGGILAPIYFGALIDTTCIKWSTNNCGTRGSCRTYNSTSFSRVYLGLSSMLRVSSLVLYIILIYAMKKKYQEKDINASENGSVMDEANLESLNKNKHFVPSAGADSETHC
Chain of OCT2 (O15244 whole entry): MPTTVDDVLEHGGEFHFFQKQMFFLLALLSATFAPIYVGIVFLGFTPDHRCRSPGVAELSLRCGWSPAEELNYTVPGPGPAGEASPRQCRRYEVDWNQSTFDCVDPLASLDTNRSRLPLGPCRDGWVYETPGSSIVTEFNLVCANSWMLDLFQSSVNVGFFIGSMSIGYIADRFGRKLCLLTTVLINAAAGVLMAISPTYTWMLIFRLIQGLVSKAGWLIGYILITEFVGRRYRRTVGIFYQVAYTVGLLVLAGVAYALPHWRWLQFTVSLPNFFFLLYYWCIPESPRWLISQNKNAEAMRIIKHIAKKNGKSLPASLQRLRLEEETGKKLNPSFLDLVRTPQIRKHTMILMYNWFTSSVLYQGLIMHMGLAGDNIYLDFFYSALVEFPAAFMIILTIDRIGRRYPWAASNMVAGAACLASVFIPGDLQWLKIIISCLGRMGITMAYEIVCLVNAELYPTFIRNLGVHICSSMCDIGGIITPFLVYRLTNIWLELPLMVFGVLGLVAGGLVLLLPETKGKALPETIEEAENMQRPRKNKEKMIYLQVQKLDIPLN
Chain of OAT1 (Q4U2R8 whole entry): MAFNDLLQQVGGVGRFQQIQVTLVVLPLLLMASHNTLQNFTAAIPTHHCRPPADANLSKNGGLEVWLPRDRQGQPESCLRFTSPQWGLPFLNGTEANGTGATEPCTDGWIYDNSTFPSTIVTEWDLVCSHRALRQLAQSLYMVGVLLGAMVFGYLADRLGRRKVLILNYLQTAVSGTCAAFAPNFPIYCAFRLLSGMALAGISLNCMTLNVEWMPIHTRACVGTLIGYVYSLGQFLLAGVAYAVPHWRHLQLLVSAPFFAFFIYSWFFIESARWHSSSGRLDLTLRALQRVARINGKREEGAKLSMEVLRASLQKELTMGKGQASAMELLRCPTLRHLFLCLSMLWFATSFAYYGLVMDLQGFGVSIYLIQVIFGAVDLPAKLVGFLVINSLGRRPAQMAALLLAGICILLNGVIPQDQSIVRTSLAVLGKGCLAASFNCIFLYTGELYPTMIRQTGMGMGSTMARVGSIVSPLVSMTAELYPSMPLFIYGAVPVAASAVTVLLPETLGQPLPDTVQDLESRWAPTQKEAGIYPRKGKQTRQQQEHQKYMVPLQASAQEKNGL
Chain of CYP2B6 (P20813 whole entry): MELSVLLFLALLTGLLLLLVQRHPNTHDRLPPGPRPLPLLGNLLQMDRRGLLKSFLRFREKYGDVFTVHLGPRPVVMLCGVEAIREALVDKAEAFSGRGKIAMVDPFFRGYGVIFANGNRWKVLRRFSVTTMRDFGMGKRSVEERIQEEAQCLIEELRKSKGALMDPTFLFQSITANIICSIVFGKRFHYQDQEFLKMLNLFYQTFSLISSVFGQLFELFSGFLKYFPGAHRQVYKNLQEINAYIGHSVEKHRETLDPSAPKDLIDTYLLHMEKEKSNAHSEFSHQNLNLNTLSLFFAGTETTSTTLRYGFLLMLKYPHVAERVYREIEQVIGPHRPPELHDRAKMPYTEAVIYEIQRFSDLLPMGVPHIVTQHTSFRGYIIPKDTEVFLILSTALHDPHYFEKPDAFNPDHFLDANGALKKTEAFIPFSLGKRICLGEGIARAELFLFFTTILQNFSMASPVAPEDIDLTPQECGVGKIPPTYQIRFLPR
Chain of P-glycoprotein (P-gp) (P08183 whole entry): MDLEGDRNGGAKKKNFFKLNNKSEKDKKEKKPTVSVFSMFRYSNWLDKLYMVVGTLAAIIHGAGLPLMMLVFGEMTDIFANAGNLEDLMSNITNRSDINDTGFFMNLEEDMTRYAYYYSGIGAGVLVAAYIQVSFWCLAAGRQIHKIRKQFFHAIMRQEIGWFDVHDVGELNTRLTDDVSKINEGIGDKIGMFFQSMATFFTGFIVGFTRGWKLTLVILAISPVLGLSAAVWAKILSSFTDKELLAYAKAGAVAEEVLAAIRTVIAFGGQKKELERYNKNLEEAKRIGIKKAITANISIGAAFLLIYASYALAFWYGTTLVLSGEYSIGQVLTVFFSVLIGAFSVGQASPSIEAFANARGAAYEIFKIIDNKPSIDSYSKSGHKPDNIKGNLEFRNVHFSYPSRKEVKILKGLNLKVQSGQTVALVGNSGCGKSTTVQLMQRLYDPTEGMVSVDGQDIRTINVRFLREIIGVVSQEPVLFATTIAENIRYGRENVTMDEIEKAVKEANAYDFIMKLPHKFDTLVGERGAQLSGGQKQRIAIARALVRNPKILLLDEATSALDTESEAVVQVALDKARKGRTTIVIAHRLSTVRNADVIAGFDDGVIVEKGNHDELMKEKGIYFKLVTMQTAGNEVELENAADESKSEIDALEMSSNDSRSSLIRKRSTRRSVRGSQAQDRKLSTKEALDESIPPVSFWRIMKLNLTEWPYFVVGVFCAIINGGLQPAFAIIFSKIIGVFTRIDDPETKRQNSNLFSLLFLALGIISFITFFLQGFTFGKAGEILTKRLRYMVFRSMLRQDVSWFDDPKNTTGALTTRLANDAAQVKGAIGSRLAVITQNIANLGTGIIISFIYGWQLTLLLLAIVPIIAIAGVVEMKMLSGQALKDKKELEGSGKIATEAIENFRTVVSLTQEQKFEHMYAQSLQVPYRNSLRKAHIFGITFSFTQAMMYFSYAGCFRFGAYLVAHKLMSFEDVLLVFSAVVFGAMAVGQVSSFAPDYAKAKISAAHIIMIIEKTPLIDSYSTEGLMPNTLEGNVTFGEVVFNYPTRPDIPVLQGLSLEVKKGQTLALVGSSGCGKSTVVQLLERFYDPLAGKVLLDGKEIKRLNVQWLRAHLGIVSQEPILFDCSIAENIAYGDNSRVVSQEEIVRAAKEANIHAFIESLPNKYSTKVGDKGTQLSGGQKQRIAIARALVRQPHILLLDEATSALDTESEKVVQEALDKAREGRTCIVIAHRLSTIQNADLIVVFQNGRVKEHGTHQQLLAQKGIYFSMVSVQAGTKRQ

Cc1nc(NC(=O)N2CCC[C@H]2C(N)=O)sc1-c1ccnc(C(C)(C)C(F)(F)F)c1 [alpelisib]
Treatment discontinuation rate due to adverse events (patients with HR+ LA/mBC): 25.0%

CO[C@H]1C[C@@H]2CC[C@@H](C)[C@@](O)(O2)C(=O)C(=O)N2CCCC[C@H]2C(=O)O[C@H]([C@H](C)C[C@@H]2CC[C@@H](OCCO)[C@H](OC)C2)CC(=O)[C@H](C)/C=C(\C)[C@@H](O)[C@@H](OC)C(=O)[C@H](C)C[C@H](C)/C=C/C=C/C=C/1C [everolimus]
Treatment discontinuation rate due to adverse events (patients with HR+ LA/mBC): 19%

C[C@]12CC[C@@H]3c4ccc(O)cc4C[C@@H](CCCCCCCCC[S+]([O-])CCCC(F)(F)C(F)(F)F)[C@H]3[C@@H]1CC[C@@H]2O (stereo partly drawn) [fulvestrant, (7α,17β)-7-{9-[(4,4,5,5,5-pentafluoropentyl)sulfinyl]nonyl}estra-1,3,5(10)-triene-3,17-diol]
Affinity for the ER relative to tamoxifen (ER): approximately 100 fold

C[C@H](Nc1ccc2c(c1)OCCn1cc(N3C(=O)OC[C@H]3C(F)F)nc1-2)C(N)=O [inavolisib, (S)-2-((2-((S)-4-(difluoromethyl)-2-oxooxazolidin-3-yl)-5,6-dihydrobenzo[f]imidazo[1,2-d][1,4]oxazepin-9-yl)amino)propanamide]
Developmental outcomes (pregnant rats; maternal exposures approximately equivalent to the human exposure at 9 mg/day): caused adverse developmental outcomes
Dose resulting in decreased fetal body weight and placental weight, post-implantation loss, lower fetal viability, fetal malformations and variations (pregnant rats; oral, period of organogenesis): ≥ 2 mg/kg/day
CYP2C9 inhibition (CYP2C9): does not inhibit
MATE1 inhibition (MATE1): does not inhibit
MATE1 substrate (MATE1): is not a substrate
OAT3 inhibition (OAT3): does not inhibit
OATP1B3 inhibition (OATP1B3): does not inhibit
OATP1B3 substrate (OATP1B3): is not a substrate
OATP1B1 inhibition (OATP1B1): does not inhibit
OATP1B1 substrate (OATP1B1): is not a substrate
CYP2C8 inhibition (CYP2C8): does not inhibit
Apoptosis ([1]; in vitro): induces apoptosis
Cellular proliferation ([1]; in vitro): reduced cellular proliferation; also recorded: inhibits proliferation
Degradation of mutated PI3K catalytic alpha subunit p110α ([1]; in vitro): induced the degradation; also recorded: specifically degrades mutant p110 alpha
Phosphorylation of the downstream target AKT ([1]; in vitro): inhibited phosphorylation
Downstream PI3K-pathway markers, including pAKT, pPRAS40, and pS6 ([1]; nonclinical studies): reduces downstream PI3K-pathway markers
BCRP inhibition [2]: does not inhibit
BCRP substrate [2]: is a substrate
CYP1A2 inhibition (CYP1A2): does not inhibit
Genotoxicity (rat bone marrow): not genotoxic
CYP2B6 induction (CYP2B6): induces
CYP2B6 inhibition (CYP2B6): does not inhibit
MATE2K inhibition (MATE2K): does not inhibit
MATE2K substrate (MATE2K): is not a substrate
DNA break (liver): did not induce DNA break
P-gp inhibition (P-glycoprotein (P-gp)): does not inhibit
P-gp substrate (P-glycoprotein (P-gp)): is a substrate
bioavailability (clinical; in vivo, po): 76%
clearance (clinical; plasma, oral): 147 mL/min
half-life (clinical; plasma, oral): 15 h
Vd/F (clinical; plasma, po): 155 L
CYP2D6 inhibition (CYP2D6): does not inhibit
Tumor growth [3]: reduced tumor growth; also recorded: inhibits tumor growth
Dose with lens cortex vacuolation (dogs; dogs, oral): ≥ 1 mg/kg/day
Dose with lens fiber swelling (dogs; dogs, oral): ≥ 0.3 mg/kg/day
Dose with decreased sperm count (dogs; male dogs, 3 months): ≥ 1 mg/kg/day
Dose with testis and epididymis findings (dogs; male dogs, 4 weeks): ≥ 1.5 mg/kg/day
OAT2 substrate (OAT2): is not a substrate
CYP3A induction (CYP3A): induces
CYP3A inhibition (CYP3A): time-dependent inhibitor
Metabolism by CYP3A (CYP3A): minimally metabolized
OCT1 inhibition (OCT1): does not inhibit
OCT1 substrate (OCT1): is not a substrate
Dose proportionality of steady-state AUC ([4]; 6 to 12 mg): proportional with dose
Effect of food on pharmacokinetics ([4]; high-fat meal): No clinically significant differences
Accumulation ([4]; human, in vivo): approximately 2 fold
Metabolism ([4]; human, in vivo): primarily metabolized by hydrolysis
Pharmacokinetics by age, sex, race, body weight, or mild hepatic impairment ([4]; human, in vivo): No clinically significant differences
Steady-state pharmacokinetics with concomitant proton pump inhibitor ([4]; human, in vivo): No clinically significant difference
Pharmacokinetics vs normal renal function ([4]; mild renal impairment): No clinically significant differences
AUC increase vs normal renal function ([4]; moderate renal impairment): 73%
Time to attain steady-state concentrations ([4]; predicted): ≤ 5 days
Administered dose recovered in feces ([4]; single oral radiolabeled dose): 48%
Administered dose recovered in feces unchanged ([4]; single oral radiolabeled dose): 11%
Administered dose recovered in urine ([4]; single oral radiolabeled dose): 49%
Administered dose recovered in urine unchanged ([4]; single oral radiolabeled dose): 40%
OCT2 inhibition (OCT2): does not inhibit
OCT2 substrate (OCT2): is not a substrate
Clastogenicity (human lymphocyte): clastogenic
Mean increase in the QTc interval of ≥20 ms (QTc interval): unlikely
Dose with atrophy in uterus and vagina, decreased ovarian follicles, estrous cycle alteration (rats; female rats, up to 3 months): ≥ 3 mg/kg/day
Dose with atrophy of prostate and seminal vesicle and decreased male reproductive organ weights (rats; male rats): ≥ 1.5 mg/kg/day
Dose with lens degeneration (rats; rats, oral): 10 mg/kg/day
fraction unbound [5]: 0.63
CYP2C19 inhibition (CYP2C19): does not inhibit
OAT1 inhibition (OAT1): does not inhibit
OAT1 substrate (OAT1): is not a substrate
Mutagenicity [6]: not mutagenic
Aqueous solubility (Aqueous solubility): pH-dependent aqueous solubility
PI3K isoform inhibitory activity (PI3Kα): inhibitory activity predominantly against PI3Kα

CC(=O)c1c(C)c2cnc(Nc3ccc(N4CCNCC4)cn3)nc2n(C2CCCC2)c1=O [palbociclib, 6-acetyl-8-cyclopentyl-5-methyl-2-(5-(piperazin-1-yl)pyridin-2-ylamino)pyrido[2,3-d]pyrimidin-7(8H)-one]
Cycle delays [7]: 68%
Dose holds [7]: 70%
Patients requiring ≥1 dose reduction of palbociclib [7]: 36%
Cycle delays [8]: 36%
Dose holds [8]: 54%
Patients requiring ≥1 dose reduction of palbociclib [8]: 34%
